# Test results taken from patent US9326970B2, “Choline esters” (Encore Health, LLC, priority 2009, dated 2016).
# Experiments:
# [1] = system: human umbilical vein endothelial cells (HUVEC, first passage); assay: In vitro toxicology: cell viability (MultiTox-Fluor or Live/Dead assay); type: cell-based; settings: doses ranging from 0.1 μM to 100 μM
# Experimental: Cell viability was determined using human umbilical vein endothelial cells (HUVEC, first passage). Cells were treated with the active agent in doses ranging from 0.1 μM to 100 μM. The number of live and dead cells was determined using the MultiTox-Fluor assay (Promega) or Live/Dead® assay (Invitrogen). Logistic plots were used to determine the compound's LD50 value. Lipoic acid was not cytotoxic the concentration range.
# [2] = system: mouse lenses; assay: Increase in elasticity: lens organ culture, change in lens diameter under coverslip (ΔD)
# Text: FIG. 4 depicts a scatter plot of the change in ΔD (micrometers) in the absence (control) and presence of lipoic acid in lens organ culture experiments. […] Statistical values are highly significant at p<0.0001 by unpaired t-test and by Kruskal Wallis test, which compared medians of each data set. The relative change in Young's modulus (E) can be calculated as the cubic value derived from the ΔD of the control divided by the ΔD of the experimental or E fractional change=(ΔD con/ΔDexp)^3.
# Increase in Elasticity: Pairs of mouse lenses were incubated in medium 200 supplemented with an antibiotic, an antimycotic, the presence or absence of lipoic acid (concentrations ranging from 0.5 μM to 500 μM) for 8-15 hours. Each lens was removed from medium, weighed, and photographed on a micrometer scale. A coverslip of known weight (0.17899±0.00200 g) was placed on the lens, and the lens was photographed again on the micrometer scale. The diameter of each lens with and without the coverslip was determined from the photographs. The change in lens diameter produced by the force (coverslip) was computed ΔD=(Dwithcoverslip−Dwithoutcoverslip).
# [3] = system: protein disulfides in the mouse lenses; assay: Decrease in disulfide bonds: protein SH/SS groups in lens homogenates
# Experimental: FIG. 5 depicts a scattergram of the percent of the total protein SH groups in disulfide bonds. Free SH groups were alkylated with 4-acetamido-4′-maleimidylstilbene-2,2′-sulfonic acid (c, 1 μM, 5 μM, 9.6 μM, 50 μM, 96 μM) or 7-diethylamino-3-(4′maleimidylphenyl)-4-methyl coumarin (500 μM, and 500 μM c). Following removal of the first alkylating agent, the S—S bonds were reduced and alkylated with fluorescein-5-maleimide. Absorption spectra were used to calculated total protein (A280 nm), free protein SH (A322 or A384), and protein SS (A490) using the appropriate extinction coefficients. The symbol ‡ indicates statistically significant difference of mean with mean of control (c, p≦0.05).
# Mouse lenses were homogenized in a denaturing buffer containing a fluorescent alkylating agent to modify the free SH groups. After removing the alkylating agent homogenates were reduced and alkylated with a different fluorescent alkylating agent. Absorption spectra of the modified proteins were used to calculate free protein SH and protein SS groups.
compound,measurement,setting,value
"O=C(O)CCCCC1CCSS1 (centres unmarked) [Lipoic acid, 5-(1,2-dithiolan-3-yl)pentanoic acid]","cytotoxicity (cell viability, LD50 from logistic plots)",[1],not cytotoxic
same,"change in ΔD (micrometers) compared to controls, FIG. 4","[2]; lens organ culture, data sets marked ‡, p<0.0001 by unpaired t-test and Kruskal Wallis test",significantly larger changes in ΔD
same,change in ΔD (lens diameter with coverslip minus without),"[2]; lipoic acid at concentrations ≧9.6 μM, 8-15 hours incubation, vs control, p<0.0001",statistically significant increase in ΔD
same,"percent of the total protein SH groups in disulfide bonds, FIG. 5","[3]; 500 μM lipoic acid vs 500 μM control, p=0.027",significantly different
same,protein disulfides,"[3]; lipoic acid at concentrations ≧9.6 μM, mouse lenses with a significant increase in ΔD",statistically significant decrease in protein disulfides
